From patent US8269043B2, “Bicyclic aryl sphingosine 1-phosphate analogs” (Biogen Idec MA Inc., priority 2008, dated 2012)

tested on: circulating lymphocytes; test: Lymphopenia assay: circulating lymphocytes after oral gavage; type: in vivo; details: C57bl/6 male mice, oral gavage 0.5 and 5 mg/kg in 30% HPCD, blood 5 and 24 hours after administration
Experimental: Measurement of circulating lymphocytes: Compounds were dissolved in 30% HPCD. Mice (C57bl/6 male, 6-10 week-old) were administered 0.5 and 5 mg/kg of a compound via oral gavage. 30% HPCD was included as a negative control.
Blood was collected from the retro-orbital sinus 5 and 24 hours after drug administration under short isoflurane anesthesia. Whole blood samples were subjected to hematology analysis. Peripheral lymphocyte counts were determined using an automated analyzer (HEMAVET™ 3700). Three mice were used to assess the lymphocyte depletion activity of each compound screened.
Compounds of formula (I) induced full lymphopenia at times as short as 3 hours or less to as long as 48 hours or more; for example, 4 to 36 hours, or 5 to 24 hours. In some cases, a compound of formula induced full lymphopenia at 5 hours and partial lymphopenia at 24 hours. The dosage required to induce lymphopenia can be in the range of, e.g., 0.001 mg/kg to 100 mg/kg; or 0.01 mg/kg to 10 mg/kg. The dosage can be 10 mg/kg or less, such as 5 mg/kg or less, 1 mg/kg or less, or 0.1 mg/kg or less

SMILES	Lymphopenia (ED50 mg/kg)
C[C@](N)(CO)c1ccc2cc(O[C@H]3C[C@@H](COCc4ccccc4)C3)ccc2c1 (relative stereo) [Example 77]	<0.5 mg/kg
CCC(C)(C)[C@H]1CC[C@@H](Oc2ccc3cc([C@@](C)(N)CO)ccc3c2)CC1 (relative stereo) [Example 79, (R)-2-Amino-2-[6-(4-cis-tert-pentylcyclohexyloxy)naphthalen-2-yl]propan-1-ol]	>5 mg/kg
CC(C)(C)[C@H]1CC[C@H](Oc2ccc3cc([C@](C)(N)CO)ccc3c2C(F)(F)F)CC1 (relative stereo) [Example 124, (S)-2-amino-2-[6-(4-trans-tert-butyl-cyclohexyloxy)-5-trifluoromethyl-naphthalen-2-yl]-propan-1-ol]	>5 mg/kg
CC(C)(C)[C@H]1CC[C@H](Oc2ccc3cc([C@@](C)(N)CO)ccc3c2)CC1 [Example 49, (R)-2-amino-2-(6-(trans-4-tert-butylcyclohexyloxy)naphthalen-2-yl)propan-1-ol]	0.4 mg/kg
C[C@](N)(CO)c1ccc2cc(O[C@H]3C[C@H](COCc4ccccc4)C3)ccc2c1 (relative stereo) [Example 76]	0.5 to 5 mg/kg
C[C@](N)(CO)c1ccc2c(C(F)(F)F)c(O[C@H]3C[C@H](COCc4ccccc4)C3)ccc2c1 (relative stereo) [Example 82]	<0.5 mg/kg
CCC(C)(C)[C@H]1CC[C@H](Oc2ccc3cc([C@@](C)(N)CO)ccc3c2)CC1 (relative stereo) [Example 78, (R)-2-Amino-2-[6-(4-trans-tert-pentylcyclohexyloxy)naphthalen-2-yl]propan-1-ol]	0.5 to 5 mg/kg
Cl.NC(CO)(CO)c1ccc2cc(O[C@H]3C[C@@H](COCc4ccccc4)C3)ccc2c1 [Example 66]	<0.5 mg/kg
CC(C)(C)[C@H]1CC[C@H](Oc2ccc3cc([C@@](C)(N)CO)ccc3c2)CC1 [Example 25, (R)-2-amino-2-(6-(trans-4-tert-butylcyclohexyloxy)naphthalen-2-yl)propan-1-ol]	>5 mg/kg

same assay, conditions: Mus musculus, Lymphocyte, po, C57bl/6 male mice, oral gavage 0.5 and 5 mg/kg in 30% HPCD, blood 5 and 24 hours after administration

SMILES	ED50
NC(CO)(CO)c1ccc2cc(Oc3ccc(Oc4ccccc4)cc3)ccc2c1 [Example 245, 2-amino-2-(6-(4-phenoxyphenoxy)naphthalen-2-yl)propane-1,3-diol]	< 0.5 mg/kg
CC(C)c1cccc(Oc2ccc3cc([C@@](C)(N)CO)ccc3c2)c1 [Example 177, (R)-2-Amino-2-(6-(3-isopropylphenoxy)naphthalen-2-yl)propan-1-ol]	> 5 mg/kg
Cc1cc(C)cc(Oc2ccc3cc([C@@](C)(N)CO)ccc3c2)c1 [Example 187, (R)-2-Amino-2-(6-(3,5-dimethylphenoxy)naphthalen-2-yl)propan-1-ol]	0.5 to 5 mg/kg
CN[C@@](C)(CO)c1ccc2cc(OC3CCC(C(C)(C)C)CC3)ccc2c1 (stereo partly drawn) [Example 112, (R)-2-[6-(4-tert-butyl-cyclohexyloxy)-naphthalen-2-yl]-2-methylamino-propan-1-ol]	0.5 to 5 mg/kg
NC(CO)(CO)c1ccc2cc(Oc3cccc(OCC4CCCCC4)c3)ccc2c1 [Example 199, 2-Amino-2-(6-(3-(cyclohexylmethoxy)phenoxy)naphthalen-2-yl)propane-1,3-diol]	< 0.5 mg/kg
CCc1ccc(Oc2ccc3cc([C@@](C)(N)CO)ccc3c2)cc1 [Example 176, (R)-2-Amino-2-(6-(4-ethylphenoxy)naphthalen-2-yl)propan-1-ol]	0.5 to 5 mg/kg
CC(N)(CO)c1ccc2c(C(F)(F)F)c(O[C@H]3CC[C@H](C(C)(C)C)CC3)ccc2c1 (relative stereo) [Example 276, 2-Amino-2-[6-(trans-4-tert-butyl-cyclohexyloxy)-5-trifluoromethyl-naphthalen-2-yl]-propan-1-ol]	< 0.5 mg/kg
C[C@](N)(CO)c1ccc2c(C(F)(F)F)c(O[C@H]3CC[C@H](C4CCCC4)CC3)ccc2c1 [Example 103, (R)-2-Amino-2-[6-(trans-4-cyclopentyl-cyclohexyloxy)-5-trifluoromethyl-naphthalen-2-yl]-propan-1-ol]	> 5 mg/kg
C[C@](N)(CO)c1ccc2c(C(F)(F)F)c(O[C@H]3CC[C@H](C(F)(F)F)CC3)ccc2c1 [Example 266, (R)-2-Amino-2-[5-trifluoromethyl-6-(trans-4-trifluoromethylcyclohexyloxy)-naphthalen-2-yl]propan-1-ol]	< 0.5 mg/kg
CCOc1ccc(-c2c(O[C@H]3CC[C@H](C(C)(C)C)CC3)ccc3cc([C@@](C)(N)CO)ccc23)cc1 [Example 227, (R)-2-amino-2-(6-(trans-4-tert-butylcyclohexyloxy)-5-(4-ethoxyphenyl)naphthalen-2-yl)propan-1-ol]	0.5 to 5 mg/kg
CCCCC1CCC(Oc2ccc3cc([C@@](C)(N)CO)ccc3c2)CC1 (stereo partly drawn) [Example 7, (R)-2-amino-2-(6-(4-butylcyclohexyloxy)naphthalen-2-yl)propan-1-ol]	< 0.5 mg/kg
C[C@](N)(CO)c1ccc2cc(OC3CCC4(CCCCC4)CC3)ccc2c1 [Example 133, (2R)-2-amino-2-(6-(spiro[5.5]undecan-3-yloxy)naphthalen-2-yl)propan-1-ol]	0.5 to 5 mg/kg
NC(CO)(CO)c1ccc2cc(Oc3cccc(OCc4ccccc4)c3)ccc2c1 [Example 194, 2-Amino-2-(6-(3-(benzyloxy)phenoxy)naphthalen-2-yl)propane-1,3-diol]	< 0.5 mg/kg
CCC(C)C1CCC(Oc2ccc3cc([C@@](C)(N)CO)ccc3c2)CC1 (stereo partly drawn) [Example 97, (R)-2-Amino-2-[6-(4-sec-butyl-cyclohexyloxy)-naphthalen-2-yl]-propan-1-ol]	0.5 to 5 mg/kg
CC(C)(C)[C@H]1CC[C@H](Oc2ccc3cc([C@]4(C)COC(=O)N4)ccc3c2C(F)(F)F)CC1 [Example 131, (R)-4-(6-(trans-4-tert-butylcyclohexyloxy)-5-(trifluoromethyl)naphthalen-2-yl)-4-methyloxazolidin-2-one]	< 0.5 mg/kg
C[C@](N)(CO)c1ccc2cc(Oc3cccc(Br)c3)ccc2c1 [Example 174, (R)-2-Amino-2-(6-(3-bromophenoxy)naphthalen-2-yl)propan-1-ol]	> 5 mg/kg
C[C@](N)(CO)c1ccc2cc(Oc3ccc(Cl)cc3)ccc2c1 [Example 173, (R)-2-Amino-2-(6-(4-chlorophenoxy)naphthalen-2-yl)propan-1-ol]	0.5 to 5 mg/kg
C[C@](N)(CO)c1ccc2cc(OC3CCC(C4CCCCC4)CC3)ccc2c1 (stereo partly drawn) [Example 89, (R)-2-Amino-2-[6-(bicyclohexyl-4-yloxy)-naphthalen-2-yl]-propan-1-ol]	0.5 to 5 mg/kg
CC(F)(F)[C@H]1CC[C@H](Oc2ccc3cc([C@@](C)(N)CO)ccc3c2C(F)(F)F)CC1 [Example 334, (R)-2-amino-2-(6-(trans-4-(1,1-difluoroethyl)cyclohexyloxy)-5-(trifluoromethyl)naphthalen-2-yl)propan-1-ol]	< 0.5 mg/kg
C[C@](N)(CO)c1ccc2c(C(F)(F)F)c(O[C@H]3CC[C@@H](C4CCCC4)CC3)ccc2c1 [Example 100, (R)-2-Amino-2-[6-(cis-4-cyclopentyl-cyclohexyloxy)-5-trifluoromethyl-naphthalen-2-yl]-propan-1-ol]	> 5 mg/kg
CCCC[C@H]1CC[C@H](Oc2ccc3cc([C@@](C)(N)CO)ccc3c2)CC1 [Example 8, (R)-2-amino-2-(6-(trans-4-butylcyclohexyloxy)naphthalen-2-yl)propan-1-ol]	< 0.5 mg/kg
